The text below walks through data of article PMC9078972 (RSC Advances, 2018).

The nature of data set [1]: in vitro. The note with it: rat, microsomes, pH 7.5.
Data set [2] can be described thus: Pharmacokinetic study in ICR mice. The data set is classed as in vivo. The settings on record: mouse.
The nature of data set [3]: in vitro. The settings on record: human, microsomes, pH 7.5.
Data set [4] in a line: in vitro. The note with it: mouse, microsomes, pH 7.5.
The nature of data set [5]: in vitro. The settings on record: dog; for Papp B→A / efflux ratio: MDCK-MDR1, pH 7.4; for Papp A→B: MDCK-MDR1, pH 7.4, Mean Papp A to B, A to B.
A short description of data set [6]: physchem. The note with it: 37 °C, water, thermodynamic from solid.
The target of data set [7] is CYP2C19 (Homo sapiens, UniProt P33261). Description: biochemical. The settings on record: CYP inhibitory IC50, 2C19.
Chain of CYP2C19 (P33261 whole entry): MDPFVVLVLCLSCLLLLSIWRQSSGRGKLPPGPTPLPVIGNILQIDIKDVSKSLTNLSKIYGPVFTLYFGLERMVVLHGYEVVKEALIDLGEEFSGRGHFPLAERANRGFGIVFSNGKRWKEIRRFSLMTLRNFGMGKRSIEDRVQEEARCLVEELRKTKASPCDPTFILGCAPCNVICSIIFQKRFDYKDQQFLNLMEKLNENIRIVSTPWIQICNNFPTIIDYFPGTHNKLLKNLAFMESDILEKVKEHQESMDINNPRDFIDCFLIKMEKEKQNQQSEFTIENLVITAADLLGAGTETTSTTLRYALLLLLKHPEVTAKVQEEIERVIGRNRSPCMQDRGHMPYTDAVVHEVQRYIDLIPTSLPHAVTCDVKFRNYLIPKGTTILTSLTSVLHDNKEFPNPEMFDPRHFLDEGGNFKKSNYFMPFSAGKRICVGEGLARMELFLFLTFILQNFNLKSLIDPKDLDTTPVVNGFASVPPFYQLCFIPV
A short description of data set [8]: Cytotoxicity against VERO cells. The data set is classed as cell-based. The settings on record: African green monkey, VERO cells (kidney epithelial cells).
Data set [9] addresses CYP3A4 (Homo sapiens, UniProt P08684). Nature of the data set: biochemical.
In data set [10] the test system is Mycobacterium tuberculosis H37Ra. Nature of the data set: microbe, parasite or virus in culture. The data set is classed as cell-based.
The conditions of data set [11]: ref previous study; cited from earlier work.

Converted amounts (≈) assume the structure as drawn.

Chain of CYP3A4 (P08684 whole entry): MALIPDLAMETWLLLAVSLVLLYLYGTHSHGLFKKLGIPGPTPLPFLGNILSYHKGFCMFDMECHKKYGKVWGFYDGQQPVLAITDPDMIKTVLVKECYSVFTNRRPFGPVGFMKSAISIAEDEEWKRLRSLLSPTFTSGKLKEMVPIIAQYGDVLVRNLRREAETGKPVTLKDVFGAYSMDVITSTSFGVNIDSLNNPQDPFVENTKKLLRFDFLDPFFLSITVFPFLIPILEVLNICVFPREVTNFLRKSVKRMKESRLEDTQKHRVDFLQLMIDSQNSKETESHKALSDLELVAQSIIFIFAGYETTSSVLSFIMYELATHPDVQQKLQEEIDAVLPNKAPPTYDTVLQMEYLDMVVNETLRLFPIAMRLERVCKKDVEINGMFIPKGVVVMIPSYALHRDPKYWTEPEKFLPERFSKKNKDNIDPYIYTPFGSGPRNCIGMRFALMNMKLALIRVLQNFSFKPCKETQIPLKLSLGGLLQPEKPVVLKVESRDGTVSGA

Regarding `O=c1nc(N2CCN(CC3CCCCC3)CC2)sc2c([N+](=O)[O-])cc(C(F)(F)F)cc12` [PBTZ169], the half-life in data set [1] was 14.7 min. In data set [2] (lung, iv, 10 mg/kg), the peak level (Cmax) was 4210 ng/mL, the MRT inf amounted to 270 min, the Tmax worked out at 4.8 min and the half-life is 190 min. In [2] (lung, po, 100 mg/kg), the area under the curve AUC(0-inf) is 7840 ng·h/mL, the Cmax came to 811 ng/mL, the MRT inf was 390 min and the Tmax was found to be 30 min. In data set [2] (lung, po, 100 mg/kg), this compound had a half-life of 254 min. In addition, in data set [2] (plasma, iv, 10 mg/kg), the AUC(0-inf) was determined as 9070 ng·h/mL, the MRT inf was 63 min, the time of peak concentration (Tmax) is 4.8 min and the Vd was found to be 1.15 L/kg. Besides, in data set [2] (plasma, iv, 10 mg/kg), the clearance is 18.3 mL/min/kg and the half-life was 160 min. In addition, in data set [2] (plasma, po, 100 mg/kg), the Cmax turned out to be 3000 ng/mL, the MRT inf was determined as 222 min, the Tmax worked out at 120 min and the bioavailability worked out at 20.8%. The compound also had a half-life in data set [2] (plasma, po, 100 mg/kg) of 125 min. The compound further registered a half-life in data set [3] of 11.1 min. The half-life in data set [4] amounted to 14.4 min. Also, in [5], the Papp B→A was found to be 0.74 ×10⁻⁶ cm/s and the Papp A→B was found to be 0.74 ×10⁻⁶ cm/s.
`O=C1CN(c2nc(=O)c3cc(C(F)(F)F)cc([N+](=O)[O-])c3s2)CCN1C1CCCC1` [Compound 1a, 2-(4-Cyclopentyl-3-oxopiperazin-1-yl)-8-nitro-6(trifluoromethyl)-4H-benzo[e]-[1,3]thiazin-4-one] displayed a solubility in data set [6] of 7.37 µg/mL (≈ 16.7 µM). Also, the half-life came to 15.6 min in [1], 72 min in [3] and 9.4 min in data set [4]. The results for the IC50 in [7] and in data set [9] were 8.6 µM and 5.33 µM, respectively. The same compound had a cytotoxic concentration (CC50) in data set [8] greater than 10 µM. For the same compound, in data set [5], the Papp B→A stood at 7.23 ×10⁻⁶ cm/s. The efflux ratio in [5] was 0.68. In data set [5], this compound came in with a Papp A→B of 10.6 ×10⁻⁶ cm/s. The MIC in [10] was 0.013 µM (≈ 5.75 ng/mL).
In [6], `C[C@H]1COC2(CCN(c3nc(=O)c4cc(C(F)(F)F)cc([N+](=O)[O-])c4s3)CC2)O1` [BTZ043] registered a solubility of less than 1 µg/mL. Further, the half-life in [1] came to 22 min. The compound also came in with a half-life in [3] of 46.1 min. For the same compound, the “bioavailability F” value in data set [11] was 29.5%. In data set [8], this compound yielded a CC50 greater than 10 µM. Besides, the half-life in data set [4] was determined as 16.7 min. In addition, in [5], the Papp B→A was 7.17 ×10⁻⁶ cm/s, the efflux ratio turned out to be 0.79 and the apparent permeability from apical to basolateral (Papp A→B) is 9.02 ×10⁻⁶ cm/s. The MIC in data set [10] was 0.004 µM (≈ 1.73 ng/mL).
For `Cc1ccnc(OC2CCN(c3nc(=O)c4cc(C(F)(F)F)cc([N+](=O)[O-])c4s3)CC2)n1` [Compound 3m, 2-(4-((4-Methylpyrimidin-2-yl)oxy)piperidin-1-yl)-8-nitro-6-(trifluoromethyl)-4H-benzo[e][1,3]thiazin-4-one], in data set [6], the solubility was determined as 2.39 µg/mL (≈ 5.11 µM). The CC50 in [8] is greater than 10 µM. Besides, in [10], the MIC worked out at 0.031 µM (≈ 14.5 ng/mL).
`COc1ccccc1C(=O)OC1CCN(c2nc(=O)c3cc(C(F)(F)F)cc([N+](=O)[O-])c3s2)CC1` [Compound 2m, 1-(8-Nitro-4-oxo-6-(trifluoromethyl)-4H-benzo[e][1,3]thiazin-2-yl)piperidin-4-yl 2-methoxybenzoate] yielded a 50% cytotoxic concentration (CC50) in data set [8] greater than 10 µM. Further, in data set [10], the MIC was determined as 0.063 µM (≈ 32.1 ng/mL).
With `CCOC(=O)CN1CCN(c2nc(=O)c3cc(C(F)(F)F)cc([N+](=O)[O-])c3s2)CC1` [Compound 2b, Ethyl 2-(4-(8-nitro-4-oxo-6-(trifluoromethyl)-4H-benzo[e][1,3]thiazin-2-yl)-piperazin-1-yl)acetate], the CC50 in [8] was greater than 10 µM. For the same compound, in data set [10], the MIC is 0.02 µM (≈ 8.93 ng/mL).
In turn, `CCCC1CC(N2CCN(c3nc(=O)c4cc(C(F)(F)F)cc([N+](=O)[O-])c4s3)CC2)C(=O)O1` (stereo not shown) [Compound 2g, 8-Nitro-2-(4-(2-oxo-5-propyltetrahydrofuran-3-yl)piperazin-1-yl)-6-(trifluoromethyl)-4H-benzo[e][1,3]thiazin-4-one] showed a CC50 in data set [8] greater than 10 µM. This compound also came in with an MIC in data set [10] of 0.016 µM (≈ 7.78 ng/mL).
`O=C1CN(c2nc(=O)c3cc(C(F)(F)F)cc([N+](=O)[O-])c3s2)CCN1C1CCCCC1` [Compound 1b, 2-(4-Cyclohexyl-3-oxopiperazin-1-yl)-8-nitro-6-(trifluoromethyl)-4H-benzo[e]-[1,3]thiazin-4-one] had a solubility in [6] of 1.63 µg/mL (≈ 3.57 µM). The compound also returned a CC50 in data set [8] greater than 10 µM. In data set [10], this compound displayed an MIC of 0.017 µM (≈ 7.76 ng/mL).
In data set [8], `COC(=O)c1ccc(C(=O)OC2CCN(c3nc(=O)c4cc(C(F)(F)F)cc([N+](=O)[O-])c4s3)CC2)cc1` [Compound 2n, Methyl (1-(8-nitro-4-oxo-6-(trifluoromethyl)-4H-benzo[e][1,3]thiazin-2-yl)-piperidin-4-yl) terephthalate] registered a CC50 greater than 10 µM. In data set [10], the MIC is 0.063 µM (≈ 33.9 ng/mL).
Compound `O=c1nc(N2CCC(Oc3ccc(F)cn3)CC2)sc2c([N+](=O)[O-])cc(C(F)(F)F)cc12` [Compound 3l, 2-(4-((5-Fluoropyridin-2-yl)oxy)piperidin-1-yl)-8-nitro-6-(tri-fluoromethyl)-4H-benzo[e][1,3]thiazin-4-one] had a CC50 in data set [8] greater than 10 µM. The compound further yielded an MIC in data set [10] of 0.031 µM (≈ 14.6 ng/mL).
On to `Cc1ccc(OC2CCN(c3nc(=O)c4cc(C(F)(F)F)cc([N+](=O)[O-])c4s3)CC2)c(F)c1` [Compound 3i, 2-(4-(2-Fluoro-4-methylphenoxy)piperidin-1-yl)-8-nitro-6-(tri-fluoromethyl)-4H-benzo[e][1,3]thiazin-4-one], for which the concentration in solution in data set [6] (solubility) was 1 µg/mL (≈ 2.07 µM). In [8], the CC50 was greater than 10 µM. The MIC in data set [10] stood at 0.016 µM (≈ 7.74 ng/mL).
Compound `O=C(OC1CCN(c2nc(=O)c3cc(C(F)(F)F)cc([N+](=O)[O-])c3s2)CC1)c1ccccc1Cl` [Compound 2j, 1-(8-Nitro-4-oxo-6-(trifluoromethyl)-4H-benzo[e][1,3]thiazin-2-yl)piperidin-4-yl 2-chlorobenzoate] displayed a cytotoxic concentration (CC50) in data set [8] greater than 10 µM. Further, in data set [10], the MIC came to 0.008 µM (≈ 4.11 ng/mL).
The matching figures for `COc1ccc(C(=O)OC2CCN(c3nc(=O)c4cc(C(F)(F)F)cc([N+](=O)[O-])c4s3)CC2)cc1` [Compound 2l, 1-(8-Nitro-4-oxo-6-(trifluoromethyl)-4H-benzo[e][1,3]thiazin-2-yl)piperidin-4-yl 4-methoxybenzoat]: greater than 10 µM and 0.008 µM (≈ 4.08 ng/mL).
For `O=C(OC1CCN(c2nc(=O)c3cc(C(F)(F)F)cc([N+](=O)[O-])c3s2)CC1)c1ccc(C(F)(F)F)cc1` [Compound 2k, 1-(8-Nitro-4-oxo-6-(trifluoromethyl)-4H-benzo[e][1,3]thiazin-2-yl)piperidin-4-yl 4-(trifluoromethyl)benzoate], in that order: greater than 10 µM and 0.008 µM (≈ 4.38 ng/mL).
For the compound `O=C1CN(c2nc(=O)c3cc(C(F)(F)F)cc([N+](=O)[O-])c3s2)CCN1CC1CCCCC1` [Compound 1c, 2-(4-(Cyclohexylmethyl)-3-oxopiperazin-1-yl)-8-nitro-6-(trifluoromethyl)-4H-benzo-[e][1,3]thiazin-4-one], the solubility in [6] is 3.57 µg/mL (≈ 7.59 µM). For the same compound, the CC50 in [8] is greater than 10 µM. In addition, the MIC in [10] amounted to 0.017 µM (≈ 8 ng/mL).
Regarding `O=c1nc(N2CCC(Oc3ccc(OC(F)(F)F)cc3)CC2)sc2c([N+](=O)[O-])cc(C(F)(F)F)cc12` [Compound 3h, 8-Nitro-2-(4-(4-(trifluoromethoxy)phenoxy)piperidin-1-yl)-6-(trifluoromethyl)-4H-benzo[e][1,3]thiazin-4-one], the CC50 in [8] is greater than 10 µM. In data set [10], this compound displayed an MIC of 0.008 µM (≈ 4.28 ng/mL).

The term half-life denotes the time in which the quantity being followed falls by half. Read a low half-life as rapid decline. Broadly, the Cmax is the peak of the concentration-time curve. Broadly, the MRT inf is a mean duration of stay, worked out from the concentration-time curve. Broadly, the Tmax is the time at which the peak concentration occurs. As usually defined, the AUC(0-inf) is total exposure, with the tail of the curve extrapolated. Higher therefore signals high exposure. As usually defined, the Vd is a proportionality between amount in the body and measured concentration, not a real space. In general, clearance refers to the volume of plasma or blood freed of the substance per unit of time. As a reminder, the bioavailability is dose-corrected exposure relative to a reference, in per cent. The low end stands for poor availability, the high end for good availability. For orientation: Papp B→A means how fast a substance crosses the layer from the basolateral side. The Papp A→B is the apparent permeability from the apical to the basolateral side of a cell layer. A word on the solubility: it is the dissolved amount per volume that the medium holds. Low values mean a poorly soluble substance, high ones a readily soluble substance. What is called IC50 is the point on the concentration scale where inhibition reaches its midpoint. As usually defined, the CC50 is the concentration that lowers cell viability or growth by half. A low value points to harm at low concentration. Usually efflux ratio stands for the permeability from basolateral to apical divided by that in the opposite direction, in the common usage.
